In patent US9045425B2, “Solid forms of N-[2,4-bis(1,1-dimethylethyl)-5-hydroxyphenyl]-1,4-dihydro-4-oxoquinoline-3-carboxamide” (Vertex Pharmaceuticals Incorporated, priority 2012, dated 2015):

Key:
[1] = Desolvation: standing open under ambient conditions or in vacuum oven, form checked by XRPD; type: physicochemical
Description: A polymorph screen was conducted in the methylethyl ketone (MEK)/water solvent systems, as well as in the acetonitrile (ACN), ACN/water and isopropyl acetate solvent systems. Polymorph screening techniques included crash cooling, solvent evaporation, antisolvent addition, and slurry experiments. Slurry experiments were performed on an IKA RCT hot plate with magnetic stirring set to 710 rpm. The temperature was controlled with an IKA ETS-D5 thermocouple. Solvent volumes were measured and transferred with Gibson Pipetteman volumetric pipettes. New forms that were identified as solvates were subjected to desolvation under two potential conditions: (1) drying in a vacuum oven at 40° C. and (2) sitting undisturbed under ambient conditions in a fume hood. Physical characterization of all forms proceeded by X-ray powder diffraction (XRPD) and thermogravimetric analysis (TGA).
New forms of Compound 1 obtained in the polymorph screen suspected of being solvates were subjected to further form investigation through attempted desolvation. Forms D, E, F, G, H, I, J, K, L and Hydrate A were left to stand open to the atmosphere under ambient conditions and or were placed in a vacuum oven.

[2] = Polymorph screen solvent systems: solubility noted when preparing saturated solutions; type: physicochemical; conditions: solvent system: water
Description: A saturated solution of Compound 1, Form XX was made by preparing 1 mL slurries using acetonitrile (ACN), ACN-water (75:25), methylethyl ketone (MEK), or MEK-water (99:1, 90:10, or 80:20) in vials. After 24 hours in capped HPLC vials, the slurries were then filtered to remove residual solids. Approximately 2 additional milligrams of Compound 1 was added to each vial containing a saturated solution. Next, the vials were heated to 70° C. with stirring until all of the material was completely dissolved. Immediately after, the samples were submerged into an ice bath. The product, which precipitated as a white powder within 1 minute, was isolated by filtration and analyzed by XRPD and TGA.
A saturated solution was made by slurrying Compound 1, Form XX in 5 mL of solvent (ACN, isopropyl acetate (IPAc), or MEK) or 1 mL of solvent for the MEK/Water solvent system. After 24 hours, the residual solids were removed by filtration. The saturated solutions were then subjected to rapid solvent evaporation by blowing nitrogen (N2) gas over the samples with a Pierce Model 18780 Reacti-Vap evaporating unit for four hours. The product precipitated as a white powder and the form was analyzed by XRPD and TGA.
A saturated solution of Compound 1, Form XX was made by slurrying either in 5 mL of solvent in the ACN, IPAc, and MEK solvent systems, 2 mL total solvent for IPAc/water, or 1 mL total solvent for the MEK/water solvent systems. After 24 hours, the residual solids were removed by filtration. 20 mL of antisolvent was then quickly added to the saturated solutions to induce precipitation. Hexane was used as the antisolvent in the MEK and IPAc solvent systems, and MTBE was used as the antisolvent in the ACN solvent systems, as a consequence of the immiscibility between ACN and hexane. The product precipitated as a white powder and the form was analyzed by XRPD and TGA.

Q: With `CC(C)(C)c1cc(C(C)(C)C)c(NC(=O)c2c[nH]c3ccccc3c2=O)cc1O` [Form L, N-[2,4-bis(1,1-dimethylethyl)-5-hydroxyphenyl]-1,4-dihydro-4-oxoquinoline-3-carboxamide] as the compound, how does the “Solid form after desolvation attempt” value ([1]; ambient conditions for two weeks) read?
A: same Form L pattern

Q: What about the “Solid form after desolvation attempt” value ([1]; vacuum oven for 24 hours) of the same compound?
A: converted to x-ray amorphous

Q: Which “Solid form after desolvation attempt” value ([1]; vacuum oven for one month) does the source give for `CC(C)(C)c1cc(C(C)(C)C)c(NC(=O)c2c[nH]c3ccccc3c2=O)cc1O` [Form G, N-[2,4-bis(1,1-dimethylethyl)-5-hydroxyphenyl]-1,4-dihydro-4-oxoquinoline-3-carboxamide] here?
A: became x-ray amorphous

Q: For `CC(C)(C)c1cc(C(C)(C)C)c(NC(=O)c2c[nH]c3ccccc3c2=O)cc1O` [Form D, N-[2,4-bis(1,1-dimethylethyl)-5-hydroxyphenyl]-1,4-dihydro-4-oxoquinoline-3-carboxamide], which “Solid form after desolvation attempt” value ([1]; ambient conditions and vacuum oven for approximately 1 month) is on record?
A: converted to a new crystalline form of Compound 1 designated Form R

Q: Which “Solubility in solvent system (antisolvent addition results)” value [2] does the source give for `CC(C)(C)c1cc(C(C)(C)C)c(NC(=O)c2c[nH]c3ccccc3c2=O)cc1O` [Compound 1, Form XX, N-[2,4-bis(1,1-dimethylethyl)-5-hydroxyphenyl]-1,4-dihydro-4-oxoquinoline-3-carboxamide] here?
A: not soluble

Q: And the “Solubility in solvent system (crash cooling results)” value [2]?
A: not soluble

Q: And the “Solubility in solvent system (solvent evaporation results)” value [2]?
A: not soluble

Q: For `CC(C)(C)c1cc(C(C)(C)C)c(NC(=O)c2c[nH]c3ccccc3c2=O)cc1O` [Form E, N-[2,4-bis(1,1-dimethylethyl)-5-hydroxyphenyl]-1,4-dihydro-4-oxoquinoline-3-carboxamide], which “XRPD pattern after desolvation attempt” value ([1]; after standing under ambient conditions and after sitting in the vacuum oven) is on record?
A: same XRPD patterns

Q: With `CC(C)(C)c1cc(C(C)(C)C)c(NC(=O)c2c[nH]c3ccccc3c2=O)cc1O` [Form K, N-[2,4-bis(1,1-dimethylethyl)-5-hydroxyphenyl]-1,4-dihydro-4-oxoquinoline-3-carboxamide] as the compound, how does the “Solid form after desolvation attempt” value ([1]; ambient conditions and vacuum oven for 2 months) read?
A: converted to a new crystalline form of Compound 1 designated Form S

Q: For `CC(C)(C)c1cc(C(C)(C)C)c(NC(=O)c2c[nH]c3ccccc3c2=O)cc1O` [Form H, N-[2,4-bis(1,1-dimethylethyl)-5-hydroxyphenyl]-1,4-dihydro-4-oxoquinoline-3-carboxamide], which “Solid form after desolvation attempt” value ([1]; ambient conditions for one month) is on record?
A: same Form H pattern

Q: What about the “Solid form after desolvation attempt” value ([1]; vacuum oven for one month) of the same compound?
A: converted to a semi-crystalline form
